Data from publication PMC3895568, “Isolation and characterization of Leucine dehydrogenase from a thermophilic Citrobacter freundii JK-91strain Isolated from Jask Port” (Iranian Journal of Microbiology, 2013).

System: T1, LeuDH (Leucine dehydrogenase, EC 1.4.1.9)
T1 construct: native enzyme purified from isolate JK-91 (ammonium sulfate, DEAE-Toyopearl, TSK gel G3000SW); subunit 40 kDa, about 320 kDa, octamer
Experiment: NADH formation at […] nm, oxidative deamination
Format: biochemical, Citrobacter freundii
Settings: co-substrate NAD+; standard assay 50 mM glycine-NaOH pH 10.4, 100 mM NaCl, 2.5 mM NAD+; exact conditions and temperature of the kinetics not stated

Compound: CC(C)C[C@H](N)C(=O)O [L-leucine]
- Km: 1200 µM
